Laboratory results as given in the NIST ThermoML archive (doi:10.1016/j.fluid.2014.04.002).

Experiment: refractive index (Na D-line) (dimensionless); xn = mol fraction of the nth substance listed
Conditions: 101 kPa, Liquid, Standard Abbe refractometry

COCCOCCOCCOCCOC [2,5,8,11,14-pentaoxapentadecane] + CCOC(=O)C(C)O
refractive index
Conditions	x2 = 0	x2 = 0.0999	x2 = 0.1999	x2 = 0.2999	x2 = 0.3998	x2 = 0.4999	x2 = 0.6001	x2 = 0.6998	x2 = 0.8001	x2 = 0.9
288.15 K	1.43553	1.43413	1.43253	1.43141	1.42997	1.42831	1.42648	1.42438	1.42214	1.41886
293.15 K	1.43338	1.43195	1.4304	1.42925	1.42782	1.42614	1.42431	1.42219	1.4199	1.41662
298.15 K	1.43123	1.42983	1.42826	1.42712	1.42566	1.42398	1.42212	1.41995	1.41764	1.41436
303.15 K	1.42906	1.42761	1.42612	1.42496	1.42351	1.4218	1.41993	1.41778	1.41537	1.41208
308.15 K	1.42697	1.42558	1.42399	1.4228	1.42135	1.41964	1.41774	1.41556	1.41312	1.4098
313.15 K	1.42447	1.42319	1.42182	1.42059	1.41916	1.41744	1.41552	1.41332	1.41084	1.40749
318.15 K	1.42206	1.42095	1.41972	1.41848	1.41703	1.41528	1.41335	1.41108	1.40853	1.40517
323.15 K	1.41985	1.4188	1.41762	1.41635	1.41488	1.41315	1.41119	1.40889	1.40622	1.40288

CCOC(=O)C(C)O (stereo not drawn) [DL-ethyl lactate] + C1CCOC1
refractive index
Conditions	x1 = 0.1002	x1 = 0.2001	x1 = 0.3001	x1 = 0.4001	x1 = 0.4999	x1 = 0.5999	x1 = 0.6999	x1 = 0.7999	x1 = 0.8997	x1 = 1
288.15 K	1.41059	1.41119	1.4118	1.41241	1.41298	1.41349	1.41393	1.41431	1.41475	1.41537
293.15 K	1.40801	1.40867	1.40932	1.40998	1.41058	1.41112	1.41157	1.41197	1.41242	1.41307
298.15 K	1.40539	1.40614	1.40687	1.40756	1.40816	1.40871	1.40922	1.40965	1.41017	1.41076
303.15 K	1.40277	1.40359	1.40438	1.4051	1.40571	1.40628	1.40684	1.4073	1.40787	1.40843
308.15 K	1.40015	1.40102	1.40187	1.40264	1.40326	1.40392	1.40445	1.40493	1.40546	1.4061
313.15 K	1.3975	1.39842	1.39936	1.40014	1.4008	1.40149	1.40205	1.40255	1.4031	1.40374
318.15 K	1.39481	1.39578	1.39672	1.39755	1.39831	1.39899	1.3996	1.40015	1.4007	1.40136
323.15 K	1.39211	1.39315	1.39416	1.39503	1.39583	1.39655	1.3972	1.39778	1.39834	1.39898
